Measured values taken from US20050106292A1, “High moisture, shelf-stable acidulated food products” (priority 2003, published 2005).

Experiment: Contact of acidic solution with human skin
Format: in vivo
Settings: solution with a pH of less than 0.5

Compound: O=S(=O)(O)O [sulfuric acid]
- irritation or injury of the hand put into the solution: an irritation would occur
